Target: T1, ABCB1 (Homo sapiens, UniProt P08183)
T1 construct: ABCB1 membrane vesicles
Experiment: vanadate-sensitive ATPase stimulation in ABCB1 membrane vesicles; supported by HPLC efflux and [3H]-paclitaxel accumulation in KB-C2 cells
Format: biochemical

T1 sequence (P08183 whole entry): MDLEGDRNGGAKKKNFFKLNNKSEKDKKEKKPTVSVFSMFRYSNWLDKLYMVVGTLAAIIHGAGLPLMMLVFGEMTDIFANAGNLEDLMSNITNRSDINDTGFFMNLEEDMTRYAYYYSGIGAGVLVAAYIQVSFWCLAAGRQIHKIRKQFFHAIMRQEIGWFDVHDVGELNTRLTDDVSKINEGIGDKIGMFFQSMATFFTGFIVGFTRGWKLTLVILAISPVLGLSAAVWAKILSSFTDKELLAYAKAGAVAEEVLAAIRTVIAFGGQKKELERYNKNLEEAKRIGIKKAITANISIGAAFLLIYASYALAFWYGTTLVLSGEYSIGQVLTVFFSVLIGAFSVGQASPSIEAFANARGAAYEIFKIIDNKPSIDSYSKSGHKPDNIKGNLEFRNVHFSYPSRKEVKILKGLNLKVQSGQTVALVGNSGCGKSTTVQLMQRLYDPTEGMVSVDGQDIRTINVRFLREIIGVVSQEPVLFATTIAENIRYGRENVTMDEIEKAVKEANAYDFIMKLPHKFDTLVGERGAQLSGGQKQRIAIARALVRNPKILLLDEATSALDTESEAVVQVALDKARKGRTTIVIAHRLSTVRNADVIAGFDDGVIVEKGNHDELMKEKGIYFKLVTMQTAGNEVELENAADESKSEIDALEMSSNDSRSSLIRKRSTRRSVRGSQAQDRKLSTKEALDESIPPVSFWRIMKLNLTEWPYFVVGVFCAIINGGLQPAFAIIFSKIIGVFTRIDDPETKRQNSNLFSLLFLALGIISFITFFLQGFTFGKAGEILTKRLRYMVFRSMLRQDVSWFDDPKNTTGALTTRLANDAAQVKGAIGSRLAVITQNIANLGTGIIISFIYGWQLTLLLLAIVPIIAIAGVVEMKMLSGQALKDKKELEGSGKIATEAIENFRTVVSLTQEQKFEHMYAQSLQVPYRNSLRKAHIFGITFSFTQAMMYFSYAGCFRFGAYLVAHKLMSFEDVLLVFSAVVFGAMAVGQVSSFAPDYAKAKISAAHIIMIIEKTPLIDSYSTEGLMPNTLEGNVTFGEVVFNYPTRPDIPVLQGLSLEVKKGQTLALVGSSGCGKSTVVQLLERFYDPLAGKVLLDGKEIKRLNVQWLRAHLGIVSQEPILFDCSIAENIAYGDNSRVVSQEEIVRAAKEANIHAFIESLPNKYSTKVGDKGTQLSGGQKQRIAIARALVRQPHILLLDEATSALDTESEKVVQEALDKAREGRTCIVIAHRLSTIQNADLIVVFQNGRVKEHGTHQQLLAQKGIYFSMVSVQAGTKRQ

EC50: 14.8 µM
SMILES: C=CC(=O)N1CCN(c2ncnc3c(F)c(-c4c(O)cccc4F)c(Cl)cc23)CC1 [ARS-1620]

Reference: publication PMC8905313, “Overexpression of ABCB1 Associated With the Resistance to the KRAS-G12C Specific Inhibitor ARS-1620 in Cancer Cells” (Frontiers in Pharmacology, 2022)
